Measurements from PubChem BioAssay AID328 (DTP/NCI, 2004).
Toxic doses and inconclusive results are not listed.

System: BDF1 mice, P388 leukemia ip, median survival T/C
Experiment: NCI In Vivo Anticancer Drug Screen. Data for tumor model P388 Leukemia (intraperitoneal) in B6D2F1 (BDF1) mice
Details: endpoint: median survival time, higher = longer survival
Procedure, shortened: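 Transplantable tumour in mice; compound vs vehicle dosing; survival scored; ratio of treated to control reported.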

[1] = dose: 100.0 mg/kg/injection, schedule: Q01DX009 (ip), vehicle: saline with Tween-80
[2] = dose: 200.0 mg/kg/injection, schedule: Q01DX009 (ip), vehicle: saline with Tween-80
[3] = dose: 400.0 mg/kg/injection, schedule: Q01DX009 (ip), vehicle: saline with Tween-80
[4] = dose: 50.0 mg/kg/injection, schedule: Q01DX009 (ip), vehicle: saline with Tween-80
[5] = dose: 200.0 mg/kg/injection, schedule: Q04DX003 (ip), vehicle: saline with Tween-80
[6] = dose: 400.0 mg/kg/injection, schedule: Q04DX003 (ip), vehicle: saline with Tween-80

With `C(=N/c1ncn[nH]1)/Nc1ncn[nH]1` the T/C (dose: 12.5 mg/kg/injection, schedule: Q01DX009 (ip), vehicle: suspension in saline) was 100 % of control, the T/C (dose: 25.0 mg/kg/injection, schedule: Q01DX009 (ip), vehicle: suspension in saline) was 113 % of control and the T/C (dose: 50.0 mg/kg/injection, schedule: Q01DX009 (ip), vehicle: suspension in saline) was 118 % of control. For the same compound, the T/C (dose: 100.0 mg/kg/injection, schedule: Q01DX009 (ip), vehicle: suspension in saline) was 96 % of control.

For `O=C(/C=C(/c1ccccc1)P(=O)(c1ccccc1)c1ccccc1)c1ccccc1`, the T/C [1] was 100 % of control, the T/C [2] was 95 % of control and the T/C [3] was 100 % of control.

With `CC(C)[C@]12O[C@H]1[C@@H]1O[C@]13[C@]1(O[C@H]1C[C@H]1C4=C(CC[C@@]13C)C(=O)OC4)[C@@H]2O` the T/C (dose: 26.0 micrograms/kg/injection, schedule: Q01DX009 (ip), vehicle: saline) was 118 % of control, the T/C (dose: 40.0 micrograms/kg/injection, schedule: Q01DX009 (ip), vehicle: saline) was 118 % of control and the T/C (dose: 60.0 micrograms/kg/injection, schedule: Q01DX009 (ip), vehicle: saline) was 100 % of control. For the same compound, the T/C (dose: 89.0 micrograms/kg/injection, schedule: Q01DX009 (ip), vehicle: saline) was 109 % of control and the T/C (dose: 133.0 micrograms/kg/injection, schedule: Q01DX009 (ip), vehicle: saline) was 100 % of control.

In the case of `OCC1=CCCCC1`, the T/C [4] is reported as 106 % of control, the T/C [1] is reported as 98 % of control and the T/C [2] is reported as 104 % of control.

For `COC(=O)C(Cl)(Cl)N=Nc1c(Cl)cc(Cl)c(C)c1Cl`, the T/C (dose: 25.0 mg/kg/injection, schedule: Q01DX009 (ip), vehicle: saline with Tween-80) was 119 % of control, the T/C [4] was 124 % of control and the T/C [2] was 89 % of control.

In the case of `NC(Cc1ccccc1Cl)c1nn[nH]n1` (stereo not given), the T/C (dose: 50.0 mg/kg/injection, schedule: Q04DX002 (ip), vehicle: saline with Tween-80) is reported as 100 % of control and the T/C (dose: 200.0 mg/kg/injection, schedule: Q04DX002 (ip), vehicle: saline with Tween-80) is reported as 121 % of control.

In the case of `COc1cc(C=Nc2ccc(Cl)cc2)ccc1N(CCCl)CCCl`, the T/C (dose: 2.2 mg/kg/injection, schedule: Q01DX009 (ip), vehicle: other) is reported as 162 % of control, the T/C (dose: 3.3 mg/kg/injection, schedule: Q01DX009 (ip), vehicle: other) is reported as 150 % of control and the T/C (dose: 5.0 mg/kg/injection, schedule: Q01DX009 (ip), vehicle: other) is reported as 179 % of control. For the same compound, the T/C (dose: 7.5 mg/kg/injection, schedule: Q01DX009 (ip), vehicle: other) was 183 % of control, the T/C (dose: 22.0 mg/kg/injection, schedule: Q04DX003 (ip), vehicle: other) was 245 % of control and the T/C (dose: 22.0 mg/kg/injection, schedule: Q04DX003 (ip), vehicle: saline) was 113 % of control. For the same compound, the T/C (dose: 33.0 mg/kg/injection, schedule: Q04DX003 (ip), vehicle: other) was 272 % of control, the T/C (dose: 33.0 mg/kg/injection, schedule: Q04DX003 (ip), vehicle: saline) was 100 % of control and the T/C (dose: 50.0 mg/kg/injection, schedule: Q04DX003 (ip), vehicle: other) was 186 % of control. The T/C (dose: 75.0 mg/kg/injection, schedule: Q04DX003 (ip), vehicle: saline) was 181 % of control.

With `NCCNCc1c[nH]c(=O)[nH]c1=O` the T/C [4] was 113 % of control, the T/C [1] was 111 % of control and the T/C [2] was 101 % of control.

In the case of `CCCCCCC(=O)/C=C/c1ccccc1Cl`, the T/C [1] is reported as 102 % of control, the T/C [2] is reported as 118 % of control and the T/C [3] is reported as 93 % of control.

For `C(=C\c1ccccc1)/CSc1ncnc2nc[nH]c12`, the T/C [1] was 104 % of control, the T/C (dose: 100.0 mg/kg/injection, schedule: Q04DX003 (ip), vehicle: saline with Tween-80) was 90 % of control and the T/C [2] was 104 % of control. For the same compound, the T/C [5] was 104 % of control, the T/C [3] was 100 % of control and the T/C [6] was 100 % of control.

In the case of `O=C(OCCO)c1ccccc1O`, the T/C (dose: 100.0 mg/kg/injection, schedule: Q01DX009 (ip), vehicle: saline) is reported as 107 % of control, the T/C (dose: 200.0 mg/kg/injection, schedule: Q01DX009 (ip), vehicle: saline) is reported as 115 % of control and the T/C (dose: 400.0 mg/kg/injection, schedule: Q01DX009 (ip), vehicle: saline) is reported as 100 % of control.

In the case of `CS(=O)(=O)C1CCCCC1SC#N` (stereo not given), the T/C [4] is reported as 98 % of control, the T/C [1] is reported as 115 % of control and the T/C [2] is reported as 115 % of control.

For `CC[C@@]1(O)C[C@H](OC2CC(N(C)C)C(O)C(C)O2)c2c(O)c3c(c(O)c2[C@H]1OC1CC(N(C)C)C(O)C(C)O1)C(=O)c1cccc(O)c1C3=O` (stereo not given in full), the T/C (dose: 0.25 mg/kg/injection, schedule: Q01DX010 (ip), vehicle: saline) was 100 % of control.

In the case of `CCCCOC(=S)Nc1ccccc1`, the T/C (dose: 50.0 mg/kg/injection, schedule: Q01DX009 (ip), vehicle: other) is reported as 100 % of control and the T/C (dose: 100.0 mg/kg/injection, schedule: Q01DX009 (ip), vehicle: other) is reported as 99 % of control.

With `O=S(=O)(OCC#CCOS(=O)(=O)c1ccc(Cl)c(Cl)c1)c1ccc(Cl)c(Cl)c1` the T/C (dose: 12.5 mg/kg/injection, schedule: Q01DX009 (ip), vehicle: Klucel (hydroxypropylcellulose) (HPC)) was 99 % of control, the T/C (dose: 25.0 mg/kg/injection, schedule: Q01DX009 (ip), vehicle: Klucel (hydroxypropylcellulose) (HPC)) was 112 % of control and the T/C (dose: 35.0 mg/kg/injection, schedule: Q01DX009 (ip), vehicle: Klucel (hydroxypropylcellulose) (HPC)) was 93 % of control. The T/C (dose: 50.0 mg/kg/injection, schedule: Q01DX009 (ip), vehicle: Klucel (hydroxypropylcellulose) (HPC)) was 87 % of control and the T/C (dose: 75.0 mg/kg/injection, schedule: Q01DX009 (ip), vehicle: Klucel (hydroxypropylcellulose) (HPC)) was 101 % of control.

`CC(C)c1nsc2c1C(=O)NC(C(C)(C)C)N2` (stereo not given) was tested, and the T/C [4] was 109 % of control, the T/C [1] was 89 % of control and the T/C [2] was 95 % of control.

For `Cc1nc2n(c1/C=N/NC(N)=S)CCS2`, the T/C (dose: 25.0 mg/kg/injection, schedule: Q01DX001 (ip), vehicle: Klucel (hydroxypropylcellulose) (HPC)) was 102 % of control, the T/C (dose: 50.0 mg/kg/injection, schedule: Q01DX001 (ip), vehicle: Klucel (hydroxypropylcellulose) (HPC)) was 98 % of control and the T/C (dose: 100.0 mg/kg/injection, schedule: Q01DX001 (ip), vehicle: Klucel (hydroxypropylcellulose) (HPC)) was 98 % of control.

In the case of `CC1B(O)Nc2nc(=S)[nH]c(N)c21` (stereo not given), the T/C (dose: 50.0 mg/kg/injection, schedule: Q04DX003 (ip), vehicle: saline sonified) is reported as 100 % of control, the T/C (dose: 100.0 mg/kg/injection, schedule: Q04DX003 (ip), vehicle: saline sonified) is reported as 100 % of control and the T/C (dose: 200.0 mg/kg/injection, schedule: Q04DX003 (ip), vehicle: saline sonified) is reported as 100 % of control.

With `COC1c2cnc(C)n2C=CN1C(C)=O` (stereo not given) the T/C (dose: 100.0 mg/kg/injection, schedule: Q04DX003 (ip), vehicle: saline) was 99 % of control, the T/C (dose: 200.0 mg/kg/injection, schedule: Q04DX003 (ip), vehicle: saline) was 104 % of control and the T/C (dose: 300.0 mg/kg/injection, schedule: Q04DX003 (ip), vehicle: saline) was 94 % of control.

For `CS(=O)(=O)CC(O)(c1ccccc1)c1cccs1` (stereo not given), the T/C [4] was 99 % of control, the T/C [1] was 100 % of control and the T/C [2] was 100 % of control.

`NC(N)=NC(N)=Nc1ccc2ccc3cccc4ccc1c2c34` was tested, and the T/C (dose: 25.0 mg/kg/injection, schedule: Q04DX003 (ip), vehicle: saline + alcohol) was 98 % of control and the T/C (dose: 50.0 mg/kg/injection, schedule: Q04DX003 (ip), vehicle: saline + alcohol) was 106 % of control.

In the case of `COc1cc2c3cc1Oc1c(OC)c(OC)cc4c1C(Cc1ccc(OC(C)=O)c(c1)Oc1ccc(cc1)CC3N(C)CC2)N(C)CC4` (stereo not given), the T/C (dose: 12.5 mg/kg/injection, schedule: Q04DX003 (ip), vehicle: saline with Tween-80) is reported as 100 % of control, the T/C (dose: 25.0 mg/kg/injection, schedule: Q04DX003 (ip), vehicle: saline with Tween-80) is reported as 109 % of control and the T/C (dose: 50.0 mg/kg/injection, schedule: Q04DX003 (ip), vehicle: saline with Tween-80) is reported as 100 % of control. For the same compound, the T/C [5] was 95 % of control and the T/C [6] was 90 % of control.

`O=C(O)CN(CCN(CC(=O)O)CC(=O)O)CC(=O)O` was tested, and the T/C (dose: 25.0 mg/kg/injection, schedule: Q01DX010 (ip), vehicle: saline) was 100 % of control, the T/C (dose: 50.0 mg/kg/injection, schedule: Q01DX010 (ip), vehicle: saline) was 91 % of control and the T/C (dose: 200.0 mg/kg/injection, schedule: Q01DX010 (ip), vehicle: saline) was 95 % of control.

For `CC(=O)OCCCl`, the T/C (dose: 50.0 mg/kg/injection, schedule: Q04DX003 (ip), vehicle: suspension in saline) was 99 % of control, the T/C (dose: 100.0 mg/kg/injection, schedule: Q04DX003 (ip), vehicle: suspension in saline) was 103 % of control and the T/C (dose: 200.0 mg/kg/injection, schedule: Q04DX003 (ip), vehicle: suspension in saline) was 103 % of control. The T/C (dose: 400.0 mg/kg/injection, schedule: Q04DX003 (ip), vehicle: suspension in saline) was 114 % of control.
